Results taken from article PMC9319549, “Synthesis and Biological Evaluation of Imadazo[1,2-a]pyrazines as Anticancer and Antiviral Agents through Inhibition of CDK9 and Human Coronavirus” (Pharmaceuticals, 2022).
Like-named read-outs stand apart in the source and are kept apart here.

Tests used:
CDK9 [1] = molecular target: T1, CDK9 (Homo sapiens, UniProt P50750); assay: biochemical; details: biochemical assay; mean ± standard deviation of three individual experiments; read-out: CDK9 Inhibitory Activity IC50
T1 construct: purchased BPS Biosciences (San Diego, CA, USA) 79628
Procedure: In this study, all the newly synthesized compounds were assessed against CDK9 in a biochemical assay, and dinaciclib was used as a standard compound.
The luminescence was measured using a microplate reader. The results were analyzed using GraphPad Prism 5.0, and the kinase inhibitory activity was expressed as IC50 for three individual experiments. In the assay, dinaciclib was used as a positive control, and DMSO was used as negative control.

breast cancer (MCF7) = assay: MTT cytotoxicity assay, MCF7; format: cell-based; details: Homo sapiens, MCF7, 48 h, read-out: IC50 MCF7
Procedure: (§1) The in vitro cytotoxicity of our compounds was determined using MTT assay. […] The results were analyzed using GraphPad Prism 5.0, and cytotoxicity was expressed as IC50 for three individual experiments.

[2] = tested on: chronic myelogenous leukaemia; assay: cells; details: K652, 48 h, read-out: IC50 K652
Procedure: as §1

[3] = tested on: colorectal cancer (HCT116); assay: cells; details: Homo sapiens, HCT-116, 48 h, read-out: IC50 HCT116
Procedure: as §1

[4] = tested on: MCF7, HCT116 and K652 cell lines; assay: MTT cytotoxicity assay, average of three cell lines; format: cell-based; details: read-out: average IC50 of three cell lines
Procedure: as §1

[5] = Cytotoxicity on target cells in the antiviral assay (crystal violet)
Procedure: The results were analyzed using GraphPad Prism 5.0, and cytotoxicity was expressed as IC50 for three individual experiments. In the assay, ribavirin was used as a positive control, and DMSO was used as a negative control.

human coronavirus 229E = assay: Cytopathic effect (CPE) inhibition assay, crystal violet method; format: cell-based; details: read-out: IC50 (229E)
Procedure: The anti-coronaviral activity of the new compounds was assessed using a cytopathic effect (CPE) inhibition assay against human coronavirus 229E. Ribavirin (well-established antiviral agent) was used as standard in this assay.

normal cells FHC = assay: cells; details: for average selectivity over three cancer cells: normal cells FHC vs MCF7, HCT116, K652; for IC50: read-out: FHC IC50
Procedure: as §1

CDK9 [6] = molecular target: T1, CDK9; details: identified by virtual screening from natural resources; cited from earlier work

T1 sequence (P50750 whole entry): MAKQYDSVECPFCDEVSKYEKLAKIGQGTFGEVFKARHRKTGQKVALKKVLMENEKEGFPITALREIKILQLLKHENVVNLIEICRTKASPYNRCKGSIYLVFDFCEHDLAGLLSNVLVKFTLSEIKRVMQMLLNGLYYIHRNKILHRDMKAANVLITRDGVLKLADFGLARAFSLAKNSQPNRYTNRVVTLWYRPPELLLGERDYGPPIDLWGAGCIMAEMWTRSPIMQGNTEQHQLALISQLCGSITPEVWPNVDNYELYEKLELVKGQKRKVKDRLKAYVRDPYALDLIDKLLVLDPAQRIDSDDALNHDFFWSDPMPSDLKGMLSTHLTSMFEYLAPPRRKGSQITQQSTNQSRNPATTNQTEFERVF
T1 sequence (O60563 whole entry partner): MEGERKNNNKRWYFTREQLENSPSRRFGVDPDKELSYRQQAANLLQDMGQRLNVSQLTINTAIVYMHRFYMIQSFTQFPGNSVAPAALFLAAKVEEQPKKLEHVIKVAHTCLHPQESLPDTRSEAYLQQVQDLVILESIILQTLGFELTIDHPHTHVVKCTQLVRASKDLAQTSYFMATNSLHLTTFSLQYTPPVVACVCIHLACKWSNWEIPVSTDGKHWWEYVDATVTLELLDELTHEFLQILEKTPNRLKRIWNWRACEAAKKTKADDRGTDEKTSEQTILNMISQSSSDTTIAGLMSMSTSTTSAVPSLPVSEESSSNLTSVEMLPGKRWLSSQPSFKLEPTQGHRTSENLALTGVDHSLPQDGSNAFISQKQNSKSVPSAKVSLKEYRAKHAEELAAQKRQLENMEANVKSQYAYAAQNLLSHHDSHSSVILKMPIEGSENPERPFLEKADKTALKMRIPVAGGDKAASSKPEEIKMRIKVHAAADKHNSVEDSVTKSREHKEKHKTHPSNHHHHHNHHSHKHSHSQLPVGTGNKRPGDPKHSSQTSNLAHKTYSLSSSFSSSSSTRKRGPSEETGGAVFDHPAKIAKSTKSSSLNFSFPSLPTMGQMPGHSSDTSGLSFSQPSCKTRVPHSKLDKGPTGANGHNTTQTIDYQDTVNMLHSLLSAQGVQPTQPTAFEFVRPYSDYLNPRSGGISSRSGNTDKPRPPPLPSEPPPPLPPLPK

Row | SMILES | IC50 (CDK9 [1]) [µM] | IC50 (breast cancer (MCF7)) [µM] | IC50 [2] [µM] | IC50 [3] [µM] | IC50 [4] [µM] | CC50 [5] [µM] | IC50 (human coronavirus 229E) [µM] | average selectivity over three cancer cells (normal cells FHC) [fold] | IC50 (normal cells FHC) [µM] | melting point [°C] | IC50 (CDK9 [6]) [µM]
1 | CC(C)(C)Nc1c(-c2ccccc2)nc2cnccn12 [Compound 1a, N-(Tert-butyl)-2-phenylimidazo[1,2-a]pyrazin-3-amine] | 1.67 ± 0.025 | 405 ± 5.05 | 310 ± 4.49 | 597 ± 8.25 | 437 | – | – | – | – | – | –
2 | c1ccc(-c2nc3cnccn3c2NC2CCCCC2)cc1 [Compound 1b, N-Cyclohexyl-2-phenylimidazo[1,2-a]pyrazin-3-amine] | 0.25 ± 0.004 | 3.01 ± 0.04 | 50.3 ± 0.8 | 1.43 ± 0.02 | 18.2 | 299 | 146 | 43 | 123 ± 19.1 | – | –
3 | c1ccc(CNc2c(-c3ccccc3)nc3cnccn23)cc1 [Compound 1c, N-Benzyl-2-phenylimidazo[1,2-a]pyrazin-3-amine] | 1.01 ± 0.017 | 99 ± 1.39 | 88.6 ± 8.25 | 59.3 ± 5.05 | – | – | – | – | – | – | –
4 | COc1ccc(Nc2c(-c3ccccc3)nc3cnccn23)cc1 [Compound 1d, N-(4-Methoxyphenyl)-2-phenylimidazo[1,2-a]pyrazin-3-amine] | 1.04 ± 0.019 | 244 ± 3.62 | 77.4 ± 1.34 | 75.2 ± 1.24 | – | – | – | – | – | – | –
5 | CC(C)(C)Nc1c(-c2ccc(O)c(O)c2)nc2cnccn12 [Compound 2a, 4-(3-(Tert-butylamino)imidazo[1,2-a]pyrazin-2-yl)benzene-1,2-diol] | 1.14 ± 0.019 | 76.8 ± 1.08 | 22.8 ± 0.37 | 35.9 ± 0.56 | – | – | – | – | – | 270 to 272 | –
6 | Oc1ccc(-c2nc3cnccn3c2NC2CCCCC2)cc1O [Compound 2b, 4-(3-(Cyclohexylamino)imidazo[1,2-a]pyrazin-2-yl)benzene-1,2-diol] | 0.89 ± 0.016 | 119 ± 1.82 | 54.2 ± 0.96 | 105 ± 1.78 | – | – | – | – | – | – | –
7 | Oc1ccc(-c2nc3cnccn3c2NCc2ccccc2)cc1O [Compound 2c, 4-(3-(Benzylamino)imidazo[1,2-a]pyrazin-2-yl)benzene-1,2-diol] | 0.31 ± 0.006 | 39.7 ± 0.62 | 88.6 ± 1.09 | 59.9 ± 1.04 | – | – | – | – | – | – | –
8 | COc1ccc(Nc2c(-c3ccc(O)c(O)c3)nc3cnccn23)cc1 [Compound 2d, 4-(3-((4-Methoxyphenyl)amino)imidazo[1,2-a]pyrazin-2-yl)benzene-1,2-diol] | 2.03 ± 0.04 | 80.4 ± 1.31 | 136 ± 2.59 | 162 ± 2.41 | 126 | – | – | – | – | 150 to 152 | –
9 | CC(C)(C)Nc1c(-c2ccncc2)nc2cnccn12 [Compound 3a, N-(Tert-butyl)-2-(pyridin-4-yl)imidazo[1,2-a]pyrazin-3-amine] | 0.26 ± 0.004 | 4.3 ± 0.5 | 46 ± 0.67 | 2.69 ± 0.04 | 17.7 | 940 | 394 | 41 | 196 ± 2.79 | – | –
10 | c1cc(-c2nc3cnccn3c2NC2CCCCC2)ccn1 [Compound 3b, N-Cyclohexyl-2-(pyridin-4-yl)imidazo[1,2-a]pyrazin-3-amine] | 0.41 ± 0.007 | 31.7 ± 0.44 | 67.8 ± 1.08 | 8.96 ± 0.14 | – | 407 | 57 | – | – | – | –
11 | c1ccc(CNc2c(-c3ccncc3)nc3cnccn23)cc1 [Compound 3c, N-Benzyl-2-(pyridin-4-yl)imidazo[1,2-a]pyrazin-3-amine] | 0.16 ± 0.003 | 8.59 ± 0.12 | 4.45 ± 0.06 | 7.96 ± 0.12 | 6.66 | 472 | 379 | 15 | 97.2 ± 1.58 | – | –
12 | COc1ccc(Nc2c(-c3ccncc3)nc3cnccn23)cc1 [Compound 3d, N-(4-Methoxyphenyl)-2-(pyridin-4-yl)imidazo[1,2-a]pyrazin-3-amine] | 0.8 ± 0.014 | 118 ± 1.17 | 46.6 ± 0.48 | 27.9 ± 1.88 | – | – | – | – | – | – | –
13 | CC(C)(C)Nc1c(-c2ccsc2)nc2cnccn12 [Compound 4a, N-(Tert-butyl)-2-(thiophen-3-yl)imidazo[1,2-a]pyrazin-3-amine] | 0.73 ± 0.011 | 25.4 ± 0.32 | 12.77 ± 0.06 | 61.31 ± 0.12 | – | – | – | 3.5 | 76.1 ± 1.11 | – | –
14 | c1cn2c(NC3CCCCC3)c(-c3ccsc3)nc2cn1 [Compound 4b, N-Cyclohexyl-2-(thiophen-3-yl)imidazo[1,2-a]pyrazin-3-amine] | 1.32 ± 0.006 | 181 ± 2.63 | 46.6 ± 0.76 | 27.9 ± 0.43 | – | – | – | – | – | 170 to 172 | –
15 | c1ccc(CNc2c(-c3ccsc3)nc3cnccn23)cc1 [Compound 4c, N-Benzyl-2-(thiophen-3-yl)imidazo[1,2-a]pyrazin-3-amine] | 0.71 ± 0.012 | 55.8 ± 0.8 | 69.2 ± 3.89 | 80.6 ± 1.26 | – | – | – | – | – | – | –
16 | COc1ccc(Nc2c(-c3ccsc3)nc3cnccn23)cc1 [Compound 4d, N-(4-Methoxyphenyl)-2-(thiophen-3-yl)imidazo[1,2-a]pyrazin-3-amine] | 3.16 ± 0.058 | 141 ± 2.13 | 87.2 ± 1.53 | 115 ± 1.93 | – | – | – | – | – | – | –
17 | Oc1ccc(-c2nc3cnccn3c2NCc2cccs2)cc1O [Compound 10] | – | – | – | – | – | – | – | – | – | – | 5.12
18 | NC(=O)c1ncn([C@@H]2O[C@H](CO)[C@@H](O)[C@H]2O)n1 [Ribavirin, reference compound] | – | – | – | – | – | 160 | 114 | – | – | – | –
19 | CN[C@@H]1C[C@H]2O[C@@](C)([C@@H]1OC)n1c3ccccc3c3c4c(c5c6ccccc6n2c5c31)C(=O)NC4 [Staurosporine, reference compound] | – | 18.4 ± 0.4 | – | – | – | – | – | – | – | – | –
